This passage reports IC50 results from BindingDB's records for doi:10.1016/j.ejmech.2020.113033 (Leiden University, 2021).

The nature of series [1]: Displacement of [3H]dofetilide from human ERG stably expressed in HEK293 cell membranes assessed as unlabelled dofetilide IC50 at 1 uM measured after 60 mins by microbeta liquid scintillation counting method (Rvb = 9.1 to 11.7 nM).
The nature of series [2]: Displacement of [3H]dofetilide from human ERG stably expressed in HEK293 cell membranes assessed as unlabelled dofetilide IC50 at 10 uM measured after 60 mins by microbeta liquid scintillation counting method (Rvb = 9.1 to 11.7 nM).
Series [3] is described as follows: Displacement of [3H]dofetilide from human ERG stably expressed in HEK293 cell membranes assessed as unlabelled dofetilide IC50 at 0.5 uM measured after 60 mins by microbeta liquid scintillation counting method (Rvb = 9.1 to 11.7 nM).
Series [4] is described as follows: Displacement of [3H]dofetilide from human ERG stably expressed in HEK293 cell membranes assessed as unlabelled dofetilide IC50 at 3 uM measured after 60 mins by microbeta liquid scintillation counting method (Rvb = 9.1 to 11.7 nM).

For the molecule `O=C(COc1ccc(C(=O)c2cc(Cl)ccc2Br)cc1)Nc1cncc(C(=O)NCC2CC2)c1`, the IC50 in series [1] worked out at 20 nM. As for `O=C(COc1ccc(C(=O)c2cc(Cl)ccc2Br)cc1)Nc1ccnc(F)c1`, the IC50 in series [2] was 18 nM. Still for that read-out and setting: next, `O=C(COc1ccc(C(=O)c2cc(Cl)ccc2Br)cc1)Nc1cccc(C(=O)NCC2CC2)c1`: 26 nM; `CNC(=O)c1cccc(NC(=O)COc2ccc(C(=O)c3cc(Cl)ccc3Br)cc2)c1`: 22 nM. In the case of `N#Cc1cc(NC(=O)COc2ccc(C(=O)c3cc(Cl)ccc3Br)cc2)ccc1F`, the IC50 in series [2] was 70 nM. On the same count and under the same terms, the result for `O=C(COc1ccc(C(=O)c2ccccc2Br)cc1)Nc1cccnc1` reads 36 nM. For `O=C(COc1ccc(C(=O)c2cc(Cl)ccc2Br)cc1)Nc1ccnc(C(=O)NCC2CC2)c1`, in series [3], the IC50 was found to be 18 nM. Regarding `O=C(COc1ccc(C(=O)c2cc(Cl)ccc2Br)cc1)Nc1ccc(Cl)c(C(=O)NCC2CC2)c1`, the IC50 in series [4] was found to be 18 nM. On to `Cc1cc(NC(=O)COc2ccc(C(=O)c3cc(Cl)ccc3Br)cc2)ccn1`, for which the IC50 in series [4] was found to be 60 nM. Same read-out and setting: the result for `O=C(COc1ccc(C(=O)c2cc(Cl)ccc2Br)cc1)Nc1cccnc1` reads 35 nM; that for `N#Cc1cccc(NC(=O)COc2ccc(C(=O)c3cc(Cl)ccc3Br)cc2)c1F`, 13 nM; that for `O=C(COc1ccc(C(=O)c2cc(Cl)ccc2Br)cc1)Nc1cccc(C(=O)NC2CC2)c1`, 11 nM.
